Literature values as cited in patent publication EP3964225A1 (priority 2020, dated 2022).

Test system: B cell growth
Conditions: eight p17 peptides tested

GARASVLSGGELDRWEKIRL [peptide F1, p17-derived peptide, aminoacids 2 to 21 of p17]
cell growth promoting activity: the only one endowed with cell growth promoting activity
